# Laboratory results taken from patent US6825340B2, “Methods and reagents for inactivating ribonucleases” (Ambion, Inc., priority 1998, dated 2004).
# Tests used:
# [1] = tested on: unknown RNase in alkaline phosphatase storage solution; assay: Isotopic assay of RNase activity in alkaline phosphatase storage solution; format: biochemical; settings: 60° C. for 20 minutes
# Experimental: The isotopic RNase assay uses a radioactive RNA synthesized by in vitro transcription as the RNA substrate. The RNA used in the following examples was 1.9 or 4.0 kb in length. The radioactive RNA was synthesized using a T7 MEGAscript™ transcription kit (Ambion, Inc.). The in vitro transcription reaction mixture contained 1.0 μg of linearized DNA template, 2 μl of 10× transcription buffer, 1 μl of UTP[α-^32P] (800 Ci/mmol), 2 μl of each 75 mM ribonucleotide and 2 μl of the T7 RNA polymerase mix, final volume of 20 μl. The reaction was incubated at 37° C. for 3 hours. The transcript was precipitated with 7.5 M LiCl and resuspended in 0.1 ml of 1 mM sodium citrate (pH 6.6) or RNase free water.
# 2 μl of the RNA probe was incubated with the test sample in a final volume of 10 μl for about 16 hours at 37° C. After incubation, the RNA was fractionated in a denaturing 6 M urea 5% acrylamide gel and then the gel was exposed to x-ray film. Untreated RNA was also fractionated as a control with the test samples for comparative purposes. […] RNase activity was indicated by the intensity of the RNA decreasing and by the appearance of smearing below the intact RNA. […]
# A commercial solution of unknown composition to the inventors designed to stabilize the storage of alkaline phosphatase was detected to have RNase activity using the isotopic assay. […]
# [2] = tested on: RNase mixture (RNase A, RNase 1, RNase T1); assay: Non-isotopic RNase inactivation assay (mouse total RNA, agarose gel); format: biochemical, human, E. coli and a fungus; design: key to RNase Inactivation Water / RNase Inactivation Buffer A / RNase Inactivation Buffer B / RNase Inactivation Buffer C: (+) indicates that the RNase mixture was inactivated; (−) indicates that the RNase mixture was not activated as determined by the non-isotopic assay; settings: for RNase Inactivation Buffer B: 50 mM Tris-HCl (pH 7.0); for RNase Inactivation Buffer C: 30 mM NaCl, 3 mM sodium citrate (pH 7.5)
# Text: The inventors routinely perform assays on RNA designed to assess RNase activity in a sample. Two different assays are typically used for the detection of ribonuclease activity, non-isotopic and isotopic. […] In both assays, the inactivation process is typically performed on a mixture of three different ribonucleases: RNase A, RNase 1, and RNase T1. Each ribonuclease is purified from a different species: […], E. coli and a fungus, respectively. The three RNases are very different from each other in their origin, substrate specificity and protein sequence. In this way, the inactivation process can test three completely different but well characterized ribonucleases. The standard stock RNase mixture employed in the following examples is prepared by combining 1 μl RNase 1 (100 U/μl; Ambion), 1 μl RNase cocktail (RNase A, 0.5 U/μl; RNase T1, 20 U/μl, Ambion) and 98 μl water. The non-isotopic assay uses total RNA isolated from mouse as the substrate for the RNase mixture. […] A quantity of 4 μg of total RNA isolated from mouse liver or brain was dissolved in an aqueous solution, usually water or 1 mM sodium citrate (pH 6.6). The treated ribonuclease sample was added to the total RNA and then incubated at 37° C. for 1 or 16 hours, depending on the sensitivity desired for the assay. After incubation, the RNA was fractionated in a formaldehyde 1% agarose gel. The RNA was detected by staining with ethidium bromide and then illuminating the gel with ultraviolet light. The RNA fluoresces in the gel. Untreated total RNA was also fractionated as a control with the test samples for comparative purposes. […] Intact total RNA has two major bands produced by the 28S and 18S ribosomal RNA. […] The RNase cocktail was made to various concentrations in different buffers in different DTT concentrations and incubated at 37° C. or 60° C. for 20 minutes. Total mouse RNA was added to the treated RNase mixture and incubated at 37° C. for one hour, fractionated in a formaldehyde denaturing 1% agarose gel and the RNA visualized by ethidium bromide staining and UV fluorescence.
# [3] = RNase Mix 64 ng/ml, DTT 5 mM, 60° C. for 20 minutes
# [4] = RNase Mix 64 ng/ml, DTT 10 mM, 37° C. for 20 minutes
# [5] = RNase Mix 64 ng/ml, DTT 10 mM, 60° C. for 20 minutes
# [6] = RNase Mix 95 ng/ml, DTT 5 mM, 60° C. for 20 minutes
# [7] = RNase Mix 95 ng/ml, DTT 10 mM, 37° C. for 20 minutes
# [8] = RNase Mix 95 ng/ml, DTT 10 mM, 60° C. for 20 minutes
# [9] = RNase Mix 191 ng/ml, DTT 5 mM, 60° C. for 20 minutes
# [10] = RNase Mix 191 ng/ml, DTT 10 mM, 37° C. for 20 minutes
# [11] = RNase Mix 191 ng/ml, DTT 10 mM, 60° C. for 20 minutes
# [12] = RNase Mix 191 ng/ml, DTT 20 mM, 60° C. for 20 minutes
# [13] = RNase Mix 954 ng/ml, DTT 5 mM, 60° C. for 20 minutes
# [14] = RNase Mix 954 ng/ml, DTT 10 mM, 37° C. for 20 minutes
# [15] = RNase Mix 954 ng/ml, DTT 10 mM, 60° C. for 20 minutes
# [16] = RNase Mix 954 ng/ml, DTT 20 mM, 60° C. for 20 minutes
compound,measurement,setting,value
"O[C@H](CS)[C@H](O)CS [DTT, dithiothreitol]",RNase activity of alkaline phosphatase storage solution,[1]; 2 mM DTT,no detectable RNase activity
same,RNase activity of alkaline phosphatase storage solution,[1]; 5 mM DTT,no detectable RNase activity
same,concentration of RNase mixture completely inactivated,"[2]; 20 mM DTT, 1 mM sodium citrate (pH 6.4), 60° C. for 20 minutes, non-isotopic assay, 1 hour incubation",up to 200 ng/ml
same,inactivation of sequentially added RNases,"[2]; 20 mM DTT, 1 mM sodium citrate (pH 6.4), RNases 200 ng/ml per addition, heating at 60° C. for 20 minutes after each addition",completely inactivated
same,concentration of RNase mixture completely inactivated in the presence of RNA,"[2]; 20 mM DTT, mouse liver total RNA 4 μg/10 μl, 1 mM sodium citrate (pH 6.4), 60° C. for 20 minutes",up to 3.125 ng/ml
same,effect of sequentially added RNases without reheating,"[2]; 20 mM DTT, same buffer, not subjected to the 60° C. incubation",complete RNA degradation
same,60° C. incubation time required for inactivation,"[2]; RNase 200 ng/ml, 20 mM DTT, 60° C.",at least 4 minutes
same,RNase Inactivation Buffer A,"[2]; RNase Mix 64 ng/ml, DTT 5 mM, 60° C. for 20 minutes, 1 mM sodium citrate (pH 6.4)",+
same,RNase Inactivation Buffer B,[2]; [3],+
same,RNase Inactivation Buffer C,[2]; [3],+
same,RNase Inactivation Water,[2]; [3],+
same,RNase Inactivation Buffer A,"[2]; RNase Mix 64 ng/ml, DTT 10 mM, 37° C. for 20 minutes, 1 mM sodium citrate (pH 6.4)",+
same,RNase Inactivation Buffer B,[2]; [4],+
same,RNase Inactivation Buffer C,[2]; [4],+
same,RNase Inactivation Water,[2]; [4],+
same,RNase Inactivation Buffer A,"[2]; RNase Mix 64 ng/ml, DTT 10 mM, 60° C. for 20 minutes, 1 mM sodium citrate (pH 6.4)",+
same,RNase Inactivation Buffer B,[2]; [5],+
same,RNase Inactivation Buffer C,[2]; [5],+
same,RNase Inactivation Water,[2]; [5],+
same,RNase Inactivation Buffer A,"[2]; RNase Mix 95 ng/ml, DTT 5 mM, 60° C. for 20 minutes, 1 mM sodium citrate (pH 6.4)",−
same,RNase Inactivation Buffer B,[2]; [6],−
same,RNase Inactivation Buffer C,[2]; [6],−
same,RNase Inactivation Water,[2]; [6],−
same,RNase Inactivation Buffer A,"[2]; RNase Mix 95 ng/ml, DTT 10 mM, 37° C. for 20 minutes, 1 mM sodium citrate (pH 6.4)",−
same,RNase Inactivation Buffer B,[2]; [7],−
same,RNase Inactivation Buffer C,[2]; [7],−
same,RNase Inactivation Water,[2]; [7],−
same,RNase Inactivation Buffer A,"[2]; RNase Mix 95 ng/ml, DTT 10 mM, 60° C. for 20 minutes, 1 mM sodium citrate (pH 6.4)",+
same,RNase Inactivation Buffer B,[2]; [8],+
same,RNase Inactivation Buffer C,[2]; [8],+
same,RNase Inactivation Water,[2]; [8],+
same,RNase Inactivation Buffer A,"[2]; RNase Mix 191 ng/ml, DTT 5 mM, 60° C. for 20 minutes, 1 mM sodium citrate (pH 6.4)",−
same,RNase Inactivation Buffer B,[2]; [9],−
same,RNase Inactivation Buffer C,[2]; [9],−
same,RNase Inactivation Water,[2]; [9],−
same,RNase Inactivation Buffer A,"[2]; RNase Mix 191 ng/ml, DTT 10 mM, 37° C. for 20 minutes, 1 mM sodium citrate (pH 6.4)",−
same,RNase Inactivation Buffer B,[2]; [10],−
same,RNase Inactivation Buffer C,[2]; [10],−
same,RNase Inactivation Water,[2]; [10],−
same,RNase Inactivation Buffer A,"[2]; RNase Mix 191 ng/ml, DTT 10 mM, 60° C. for 20 minutes, 1 mM sodium citrate (pH 6.4)",+
same,RNase Inactivation Buffer B,[2]; [11],+
same,RNase Inactivation Buffer C,[2]; [11],+
same,RNase Inactivation Water,[2]; [11],+
same,RNase Inactivation Buffer A,"[2]; RNase Mix 191 ng/ml, DTT 20 mM, 60° C. for 20 minutes, 1 mM sodium citrate (pH 6.4)",+
same,RNase Inactivation Buffer B,[2]; [12],+
same,RNase Inactivation Buffer C,[2]; [12],+
same,RNase Inactivation Water,[2]; [12],+
same,RNase Inactivation Buffer A,"[2]; RNase Mix 954 ng/ml, DTT 5 mM, 60° C. for 20 minutes, 1 mM sodium citrate (pH 6.4)",−
same,RNase Inactivation Buffer B,[2]; [13],−
same,RNase Inactivation Buffer C,[2]; [13],−
same,RNase Inactivation Water,[2]; [13],−
same,RNase Inactivation Buffer A,"[2]; RNase Mix 954 ng/ml, DTT 10 mM, 37° C. for 20 minutes, 1 mM sodium citrate (pH 6.4)",−
same,RNase Inactivation Buffer B,[2]; [14],−
same,RNase Inactivation Buffer C,[2]; [14],−
same,RNase Inactivation Water,[2]; [14],−
same,RNase Inactivation Buffer A,"[2]; RNase Mix 954 ng/ml, DTT 10 mM, 60° C. for 20 minutes, 1 mM sodium citrate (pH 6.4)",−
same,RNase Inactivation Buffer B,[2]; [15],−
same,RNase Inactivation Buffer C,[2]; [15],−
same,RNase Inactivation Water,[2]; [15],−
same,RNase Inactivation Buffer A,"[2]; RNase Mix 954 ng/ml, DTT 20 mM, 60° C. for 20 minutes, 1 mM sodium citrate (pH 6.4)",+
same,RNase Inactivation Buffer B,[2]; [16],+
same,RNase Inactivation Buffer C,[2]; [16],+
same,RNase Inactivation Water,[2]; [16],+
same,RNase mixture inactivation,"[2]; RNase mixture 64 ng/ml, 10 mM DTT, 37° C. for 20 minutes",inactivated
same,RNase activity inactivated,"[2]; RNase mixture 200 ng/ml, 20 mM DTT, 60° C. for 1 minute",approximately 50%
same,RNase activity inactivated,"[2]; RNase mixture 200 ng/ml, 20 mM DTT, 60° C. for 2 minutes",~80%
same,RNase activity inactivated,"[2]; RNase mixture 200 ng/ml, 20 mM DTT, 60° C. for 4 minutes",~100%
same,RNase inactivation in different buffers and solutions,"[2]; RNase mixture 200 ng/ml, 20 mM DTT, 60° C. for 20 minutes, 17 solutions, non-isotopic",inactivated RNase activity in all of buffers and solutions tested
same,RNase mixture inactivation,"[2]; RNase mixture 200 ng/ml, 20 mM DTT, 60° C. for less than 30 seconds",did not inactivate
same,RNase mixture inactivation,"[2]; RNase mixture 954 ng/ml, 20 mM DTT, 60° C. for 20 minutes",inactivated
same,RNase activity on retest after storage,[2]; solutions with inactivated RNases stored at 4° C. for one month,none of the solutions had detectable RNase activity
